pIC50: −log10 of the molar value.
Each compound was assayed on RAW264.7 (assay: Antiinflammatory activity in mouse RAW264.7 cells assessed as inhibition of LPS-induced nitric oxide production after 1 day by Griess assay). Settings: RAW264.7, 24 h.
Type: functional, cell-based

Point of comparison: Cc1cc(C(=O)O)cc2c1C(=O)C[C@@H]2C, pIC50 5.55. Against it:
- CC1=C[C@@]2(O)O[C@@]3(C/C2=C(/C)CO)[C@@H](C)CC[C@@H]13 — 0.53 log units lower, 5.02
- Cc1cc(=O)c(C(C)(C)O)cc2c1C(=O)C[C@@H]2C — 0.36 log units lower, 5.19
- CC1=C[C@]2(O)O[C@@]3(CC2=C(C)C)[C@@H](C)CC[C@@H]13 [CURCUMENOL] — 0.28 log units lower, 5.27
- CC(C)=C1C[C@@]23O[C@]1(O)C[C@](C)(O)[C@@H]2CC[C@@H]3C — lower, < 4.30
- CC1=C[C@@]2(O)O[C@]3(CC2=C(C)C)[C@H]1[C@H](O)C[C@@H]3C — 0.82 log units lower, 4.73
- CC(C)=C1C[C@@]23O[C@]1(O)C=C(CO)[C@@H]2CC[C@@H]3C — 0.36 log units lower, 5.19
- COc1ccc2c(c1)c(CC(=O)O)c(C)n2C(=O)c1ccc(Cl)cc1 [INDOMETHACIN] — 0.70 log units lower, 4.85
